Measured values taken from PMC6274419, “Synthesis and Anticancer Activities of Glycyrrhetinic Acid Derivatives” (Molecules, 2016).
Where a name gives a salt, the structure may show the parent alone. Read-outs that look alike come from different tables or passages of the source.

Key:
Assay type in all cases: cell-based, human
[1] = system: hTERT-RPE1 cells; assay: MTT cytotoxicity assay, hTERT-RPE1 normal cells; conditions: read-out: IC50 hTERT-RPE1
Experimental: (§1) The anticancer activities of compounds 17–24, 41–56 against MCF-7, MDA-MB-231 and hTERT-RPE1 cells were determined in vitro by an MTT assay. […] The data was calculated and presented as IC50 values in Table 1.
(§2) The cytotoxicities of the compounds were evaluated by the MTT assay, which is based on the conversion of MTT to formazan crystals by mitochondrial dehydrogenases. […] The medium was incubated with 20 μL of 5 mg/mL MTT solution for 3 h in a humidified incubator containing 5% CO2. The purple coloured formazan crystals formed in the wells were dissolved in DMSO and their absorbances were measured at 570 nm with a microplate reader. Cell viability was expressed as a percentage of the value in control cultures.

[2] = system: MCF-7 cells; assay: MTT cytotoxicity assay, MCF-7; conditions: read-out: IC50 MCF-7
Experimental: as §1, §2

[3] = system: MDA-MB-231 cells; assay: MTT cytotoxicity assay, MDA-MB-231; conditions: read-out: IC50 MDA-MB-231
Experimental: The data was calculated and presented as IC50 values in Table 1.
as §2

[4] = normal human retinal pigment epithelial cell line hTERT-RPE1, MTT method, 24 h treatment, mean ± SD
[5] = MCF7, human breast cancer cell line MCF-7, MTT method, 24 h treatment, mean ± SD
[6] = human breast cancer cell line MDA-MB-231, MTT method, 24 h treatment, mean ± SD

Compound | IC50 [1, 4] [µM] | IC50 [2, 5] [µM] | IC50 [3, 6] [µM] | IC50 ([3]; Homo sapiens, MDA-MB-231, 24 h) [µM] | IC50 ([1]; Homo sapiens, hTERT-RPE1, 24 h) [µM] | IC50 ([2]; Homo sapiens, MCF7, 24 h) [µM]
COc1cccc2c1C(=O)c1c(O)c3c(c(O)c1C2=O)C[C@@](O)(C(=O)CO)C[C@@H]3O[C@H]1C[C@H](N)[C@H](O)[C@H](C)O1 [ADR, doxorubicin, reference compound] | 2.76 ± 0.11 | 0.49 ± 0.09 | – | – | – | –
COC(=O)/C=C/c1ccc(OC(=O)[C@@]2(C)CC[C@]3(C)CC[C@]4(C)C(=CC(=O)[C@@H]5[C@@]6(C)CC[C@H](OC(=O)[C@@H](N)CCSC)C(C)(C)[C@@H]6CC[C@]54C)[C@@H]3C2)c(OC)c1 [Compound 41, Ferulic acid methyl ester 3β-(l-methionine)-11-oxo-olean-12-en-30-oate hydrochloride] | 10.4 ± 0.8 | 6 ± 0.43 | 3.52 ± 0.61 | – | – | –
COC(=O)/C=C/c1ccc(OC(=O)[C@@]2(C)CC[C@]3(C)CC[C@]4(C)C(=CC(=O)[C@@H]5[C@@]6(C)CC[C@H](OC(=O)[C@@H](N)CC[Se]C)C(C)(C)[C@@H]6CC[C@]54C)[C@@H]3C2)c(OC)c1 [Compound 42, Ferulic acid methyl ester 3β-(l-selenomethionine)-11-oxo-olean-12-en-30-oate hydrochloride] | – | – | – | 1.37 ± 0.18 | 4.93 ± 0.36 | 1.88 ± 0.2
CCOC(=O)/C=C/c1ccc(OC(=O)[C@@]2(C)CC[C@]3(C)CC[C@]4(C)C(=CC(=O)[C@@H]5[C@@]6(C)CC[C@H](OC(=O)[C@@H](N)CCSC)C(C)(C)[C@@H]6CC[C@]54C)[C@@H]3C2)c(OC)c1 [Compound 43, Ferulic acid ethyl ester 3β-(l-methionine)-11-oxo-olean-12-en-30-oate hydrochloride] | 16.3 ± 0.51 | 8.62 ± 0.23 | 5.36 ± 0.44 | – | – | –
CCOC(=O)/C=C/c1ccc(OC(=O)[C@@]2(C)CC[C@]3(C)CC[C@]4(C)C(=CC(=O)[C@@H]5[C@@]6(C)CC[C@H](OC(=O)[C@@H](N)CC[Se]C)C(C)(C)[C@@H]6CC[C@]54C)[C@@H]3C2)c(OC)c1 [Compound 44, Ferulic acid ethyl ester 3β-(l-selenomethionine)-11-oxo-olean-12-en-30-oate hydrochloride] | – | – | – | 3.49 ± 0.61 | 12.3 ± 0.46 | 8.45 ± 0.32
COC(=O)/C=C/c1ccc(OC(=O)[C@@]2(C)CC[C@]3(C)CC[C@]4(C)C(=CC(=O)[C@@H]5[C@@]6(C)CC[C@H](OC(=O)[C@@H](N)CCSC)C(C)(C)[C@@H]6CC[C@]54C)[C@@H]3C2)cc1 [Compound 45, trans-4-Hydroxycinnamic acid methyl ester 3β-(l-methionine)-11-oxo-olean-12-en-30-oate hydrochloride] | 8.48 ± 0.73 | 7.24 ± 0.3 | 6.43 ± 0.84 | – | – | –
COC(=O)/C=C/c1ccc(OC(=O)[C@@]2(C)CC[C@]3(C)CC[C@]4(C)C(=CC(=O)[C@@H]5[C@@]6(C)CC[C@H](OC(=O)[C@@H](N)CC[Se]C)C(C)(C)[C@@H]6CC[C@]54C)[C@@H]3C2)cc1 [Compound 46, trans-4-Hydroxycinnamic acid methyl ester 3β-(l-selenomethionine)-11-oxo-olean-12-en-30-oate hydrochloride] | – | – | – | 6.27 ± 0.24 | 6.33 ± 0.19 | 6.02 ± 0.35
CCOC(=O)/C=C/c1ccc(OC(=O)[C@@]2(C)CC[C@]3(C)CC[C@]4(C)C(=CC(=O)[C@@H]5[C@@]6(C)CC[C@H](OC(=O)[C@@H](N)CCSC)C(C)(C)[C@@H]6CC[C@]54C)[C@@H]3C2)cc1 [Compound 47, trans-4-Hydroxycinnamic acid ethyl ester 3β-(l-methionine)-11-oxo-olean-12-en-30-oatehydrochloride] | 5.65 ± 1.02 | 2.65 ± 0.12 | 2.31 ± 0.65 | – | – | –
CCOC(=O)/C=C/c1ccc(OC(=O)[C@@]2(C)CC[C@]3(C)CC[C@]4(C)C(=CC(=O)[C@@H]5[C@@]6(C)CC[C@H](OC(=O)[C@@H](N)CC[Se]C)C(C)(C)[C@@H]6CC[C@]54C)[C@@H]3C2)cc1 [Compound 48, trans-4-Hydroxycinnamic acid ethyl ester 3β-(l-selenomethionine)-11-oxo-olean-12-en-30-oate hydrochloride] | – | – | – | 1.86 ± 0.29 | 7.08 ± 0.73 | 2.42 ± 0.23
COC(=O)/C=C/c1ccc(OC)c(OC(=O)[C@@]2(C)CC[C@]3(C)CC[C@]4(C)C(=CC(=O)[C@@H]5[C@@]6(C)CC[C@H](OC(=O)[C@@H](N)CCSC)C(C)(C)[C@@H]6CC[C@]54C)[C@@H]3C2)c1 [Compound 49, Isoferulic acid methyl ester 3β-(l-methionine)-11-oxo-olean-12-en-30-oate hydrochloride] | 8.92 ± 0.55 | 8.7 ± 0.14 | 4.56 ± 0.36 | – | – | –
COC(=O)/C=C/c1ccc(OC)c(OC(=O)[C@@]2(C)CC[C@]3(C)CC[C@]4(C)C(=CC(=O)[C@@H]5[C@@]6(C)CC[C@H](OC(=O)[C@@H](N)CC[Se]C)C(C)(C)[C@@H]6CC[C@]54C)[C@@H]3C2)c1 [Compound 50, Isoferulic acid methyl ester 3β-(l-selenomethionine)-11-oxo-olean-12-en-30-oate hydrochloride] | – | – | – | 3.13 ± 0.45 | 9.79 ± 0.37 | 5.12 ± 0.58
CCOC(=O)/C=C/c1ccc(OC)c(OC(=O)[C@@]2(C)CC[C@]3(C)CC[C@]4(C)C(=CC(=O)[C@@H]5[C@@]6(C)CC[C@H](OC(=O)[C@@H](N)CCSC)C(C)(C)[C@@H]6CC[C@]54C)[C@@H]3C2)c1 [Compound 51, Isoferulic acid ethyl ester 3β-(l-methionine)-11-oxo-olean-12-en-30-oate hydrochloride] | 12.5 ± 0.4 | 8.81 ± 0.2 | 4.67 ± 0.74 | – | – | –
CCOC(=O)/C=C/c1ccc(OC)c(OC(=O)[C@@]2(C)CC[C@]3(C)CC[C@]4(C)C(=CC(=O)[C@@H]5[C@@]6(C)CC[C@H](OC(=O)[C@@H](N)CC[Se]C)C(C)(C)[C@@H]6CC[C@]54C)[C@@H]3C2)c1 [Compound 52, Isoferulic acid ethyl ester 3β-(l-selenomethionine)-11-oxo-olean-12-en-30-oate hydrochloride] | – | – | – | 3.27 ± 0.66 | 10.1 ± 0.28 | 6.93 ± 0.63
COC(=O)/C=C/c1cccc(OC(=O)[C@@]2(C)CC[C@]3(C)CC[C@]4(C)C(=CC(=O)[C@@H]5[C@@]6(C)CC[C@H](OC(=O)[C@@H](N)CCSC)C(C)(C)[C@@H]6CC[C@]54C)[C@@H]3C2)c1 [Compound 53, trans-3-Hydroxycinnamic acid methyl ester 3β-(l-methionine)-11-oxo-olean-12-en-30-oate hydrochloride] | 8.49 ± 0.51 | 7.2 ± 0.55 | 3.54 ± 0.46 | – | – | –
COC(=O)/C=C/c1cccc(OC(=O)[C@@]2(C)CC[C@]3(C)CC[C@]4(C)C(=CC(=O)[C@@H]5[C@@]6(C)CC[C@H](OC(=O)[C@@H](N)CC[Se]C)C(C)(C)[C@@H]6CC[C@]54C)[C@@H]3C2)c1 [Compound 54, trans-3-Hydroxycinnamic acid methyl ester 3β-(l-selenomethionine)-11-oxo-olean-12-en-30-oate hydro-chloride] | – | – | – | 2.46 ± 0.77 | 4.55 ± 0.44 | 3.48 ± 0.82
CCOC(=O)/C=C/c1cccc(OC(=O)[C@@]2(C)CC[C@]3(C)CC[C@]4(C)C(=CC(=O)[C@@H]5[C@@]6(C)CC[C@H](OC(=O)[C@@H](N)CCSC)C(C)(C)[C@@H]6CC[C@]54C)[C@@H]3C2)c1 [Compound 55, trans-3-Hydroxycinnamic acid ethyl ester 3β-(l-methionine)-11-oxo-olean-12-en-30-oate hydrochloride] | 6.63 ± 0.22 | 5.79 ± 0.85 | 1.92 ± 0.91 | – | – | –
